Some test systems named below: SF-295 CNS; OVCAR-5 ovarian; PC-3 prostate; MDA-N; UACC-257 melanoma.
Common to all, as to test: NCI-60 cell line screen, 48 h

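Protocol summary: plate cells (96-well), add compound at 5 concentrations, incubate 48 h, interpolate endpoints linearly. TGI is the concentration that stops growth completely.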 Bounds are passed on as bounds.

Take `C[C@]12CCC(=O)O[C@H]1CCCCO2`: the TGI with SF-295 CNS, with OVCAR-5 ovarian, with PC-3 prostate, with MDA-N and in the experiment on UACC-257 melanoma was greater than 100 µM in each case.
In the case of `CCN(CC)C(=S)N/N=C(/C)c1cccc(/C(C)=N\NC(=S)N(CC)CC)n1`, the TGI in the experiment with SF-295 CNS turned out to be 6.7 µM; in the experiment with OVCAR-5 ovarian it was 20.8 µM; with PC-3 prostate, 17 µM; with MDA-N, 21.4 µM; with UACC-257 melanoma it was 11 µM.
For `Oc1c(CN2CCOCC2)ccc2cccnc12`, the TGI in the experiment on SF-295 CNS, in the experiment with OVCAR-5 ovarian, in the experiment with PC-3 prostate, with MDA-N and with UACC-257 melanoma was greater than 10 µM throughout.
As for `COc1cc(Cn2c3c(c4cc(O)ccc42)Cc2ccccc2C3=O)cc(OC)c1`, the TGI with SF-295 CNS is 93.9 µM; in the experiment with OVCAR-5 ovarian it was 56.2 µM; in the experiment with PC-3 prostate, greater than 100 µM; in the experiment on MDA-N, greater than 100 µM; with UACC-257 melanoma, greater than 100 µM.
Take `CCOCc1nc2c(OC)cc(-c3nc4ccc(N5CCN(C)CC5)cc4[nH]3)c(OC)c2[nH]1`: the TGI in the experiment with SF-295 CNS is 36.8 µM; in the experiment on OVCAR-5 ovarian, greater than 100 µM; in the experiment with PC-3 prostate it was greater than 100 µM; in the experiment on MDA-N, 35.9 µM; with UACC-257 melanoma, 34.4 µM.
Take `COc1ccc(C(=C(Cl)c2ccccc2)c2ccc(OC)cc2)cc1`: the TGI with SF-295 CNS, in the experiment on OVCAR-5 ovarian, in the experiment with PC-3 prostate, with MDA-N and in the experiment on UACC-257 melanoma was greater than 100 µM each time.
`O=C1/C(=N/O)Cc2c(Br)ccc(Br)c21`: the TGI with SF-295 CNS, with OVCAR-5 ovarian, in the experiment on PC-3 prostate, in the experiment on MDA-N and in the experiment with UACC-257 melanoma was greater than 100 µM in each case.
`COc1cccc(-c2ccc3c4c2O[C@H]2C(=O)CC[C@@]5(O)[C@@H](C3)N(CC3CC3)CC[C@]425)c1`: the TGI with SF-295 CNS worked out at 32.6 µM; with OVCAR-5 ovarian it was 35.7 µM; in the experiment with PC-3 prostate it was 29.2 µM; with MDA-N, 39.3 µM; with UACC-257 melanoma it was 43.2 µM.
For `CCN(CC)C(=O)Cn1c(C)cc2ccccc21` the same measures were greater than 100 µM, greater than 100 µM, greater than 100 µM, greater than 100 µM and greater than 100 µM.
With `O=C(NNC(=S)Nc1cccc(Cl)c1)c1cc(-c2ccccc2)nc2ccccc12`, the TGI in the experiment with SF-295 CNS was found to be 24.5 µM; with OVCAR-5 ovarian it was 36 µM; with PC-3 prostate it was 29.3 µM; in the experiment with MDA-N, 36.5 µM; in the experiment with UACC-257 melanoma it was 31.5 µM.
Regarding `CCOC(=O)c1nc2ccc(C(F)(F)F)cc2nc1NCc1cc(OC)c(OC)c(OC)c1`, the TGI with SF-295 CNS was greater than 100 µM; in the experiment with OVCAR-5 ovarian it was greater than 100 µM; in the experiment on PC-3 prostate, greater than 100 µM; in the experiment with MDA-N, 76 µM; with UACC-257 melanoma, greater than 100 µM.
In the case of `CN1CCC(O)(C(C)(C)C)CC1`, the TGI in the experiment with SF-295 CNS, in the experiment on OVCAR-5 ovarian, with PC-3 prostate, in the experiment with MDA-N and with UACC-257 melanoma was greater than 100 µM each time.
`Oc1ccc(-c2nc(-c3cccnc3)c(-c3ccc(Cl)cc3)[nH]2)cc1`: the TGI was 27.3 µM in the experiment on SF-295 CNS; 33.5 µM in the experiment on OVCAR-5 ovarian; 19.5 µM in the experiment with PC-3 prostate; 26.3 µM in the experiment with MDA-N; 29.6 µM in the experiment on UACC-257 melanoma.
The corresponding values for `Nc1nc(N)c2ncn(-c3ccc(Cl)cc3)c2n1` are greater than 100 µM, greater than 100 µM, greater than 100 µM, greater than 100 µM and greater than 100 µM.
The corresponding values for `c1ccc2c(c1)ccn2CCc1c[nH]c2ccccc12` are greater than 10 µM, greater than 10 µM, greater than 10 µM, greater than 10 µM and greater than 10 µM.
For the molecule `O=Cc1ccc2c(c1)CC1(Cc3ccccc3C1)C2`, the TGI in the experiment with SF-295 CNS is 94.5 µM; in the experiment on OVCAR-5 ovarian it was greater than 100 µM; with PC-3 prostate, 59.6 µM; in the experiment on MDA-N, 38.9 µM; in the experiment on UACC-257 melanoma, 44.1 µM.
In the case of `O=C1C=CC[C@H]2O[C@@H](COC(=O)Cc3ccccc3)C[C@H]2O1`, the TGI in the experiment with SF-295 CNS, in the experiment with OVCAR-5 ovarian, with PC-3 prostate, in the experiment with MDA-N and in the experiment on UACC-257 melanoma was greater than 100 µM in each case.
In the case of `CCOC(=O)/C=C(/C(=O)OCC)n1ccc(=O)n(Cc2cn(COCCOC(C)=O)nn2)c1=O`, the TGI is greater than 100 µM in the experiment with SF-295 CNS; 35.2 µM in the experiment with OVCAR-5 ovarian; greater than 100 µM in the experiment with PC-3 prostate; greater than 100 µM with MDA-N; 42.4 µM in the experiment on UACC-257 melanoma.
Turning to `Cc1ccc(-c2c(C#N)c(-c3ccc(Cl)cc3)c(C#N)c(=O)n2NS(=O)(=O)c2ccc(C)cc2)cc1`, the TGI in the experiment with SF-295 CNS was greater than 100 µM; in the experiment with OVCAR-5 ovarian, greater than 100 µM; in the experiment on PC-3 prostate, 45 µM; in the experiment on MDA-N, greater than 100 µM; in the experiment with UACC-257 melanoma, greater than 100 µM.
Take `COC[C@@H](C[C@H]1O[C@@](O)([C@H](O)[C@@H]2C[C@H](OC)[C@@H](O)CC/C=C(C)/C=C/[C@@H](O[C@@H]3O[C@@H](C)[C@H](OC)[C@@H](O)[C@@H]3O)[C@H](C)/C=C(C)/C=C(C)/C=C(\C)C(=O)O2)[C@H](C)[C@@H](O)[C@H]1C)O[C@H]1C[C@](C)(O)[C@@H](O[C@H]2C[C@@H](OC)[C@H](O)[C@@H](C)O2)C(C)O1` (stereo not given in full): the TGI in the experiment with SF-295 CNS is greater than 100 µM; in the experiment on OVCAR-5 ovarian it was greater than 100 µM; in the experiment with PC-3 prostate, greater than 100 µM; with MDA-N it was greater than 100 µM; with UACC-257 melanoma it was 26.5 µM.
Turning to `OCC(O)COCn1nncc1Cn1ncc2c(SCc3ccccc3)ncnc21` (stereo not given), the TGI in the experiment with SF-295 CNS, in the experiment with OVCAR-5 ovarian, with PC-3 prostate, with MDA-N and in the experiment with UACC-257 melanoma was greater than 100 µM each time.
`CC1(C)NC2C(=O)c3c([nH]c4ccccc34)[C@]3(C)CCC1CC23` (stereo not given in full): the TGI in the experiment on SF-295 CNS, in the experiment on OVCAR-5 ovarian, in the experiment with PC-3 prostate, with MDA-N and in the experiment on UACC-257 melanoma was greater than 100 µM throughout.
For the molecule `Cc1ccc(/C=C2\CCCc3ccccc3C2=O)cc1`, the TGI with SF-295 CNS is 16.6 µM; in the experiment with OVCAR-5 ovarian, 29.5 µM; with PC-3 prostate, greater than 100 µM; with MDA-N, 4.48 µM; in the experiment with UACC-257 melanoma, greater than 100 µM.
